In brackets after ≈: the same amount, converted by molar mass. Counter-ions that a name gives are not always drawn.
What was measured:
A. baumannii (ARC3495) = experiment: MIC against A. baumannii; details: for MIC: Acinetobacter baumannii, read-out: A. baumannii MIC (ARC3495) (mg/L)
P. aeruginosa PBP3 = P. aeruginosa PBP3 (Pseudomonas aeruginosa, UniProt G3XD46); type: biochemical; details: P. aeruginosa PBP3 60 nM, BOCILLIN FL 30 nM, pH 7.0
[1] = system: K. pneumoniae (ATCC700603); experiment: MIC against K. pneumoniae; details: for MIC: Klebsiella pneumoniae, ATCC700603, read-out: K. pneumoniae MIC (ATCC700603)
P. aeruginosa WT (PAO1) = experiment: MIC, CLSI broth microdilution, P. aeruginosa; type: cell-based; details: CLSI broth microdilution; for MIC: Pseudomonas aeruginosa, PAO1, read-out: P. aeruginosa WT (PAO1) MIC
P. aeruginosa PBP1a = P. aeruginosa PBP1a (Pseudomonas aeruginosa, UniProt Q07806); type: biochemical; details: P. aeruginosa PBP1a 60 nM, BOCILLIN FL 30 nM, pH 7.0
P. aeruginosa PBP2 = target: T1, P. aeruginosa PBP2 (Pseudomonas aeruginosa, UniProt Q9X6V3); type: biochemical; details: P. aeruginosa PBP2 300 nM, BOCILLIN FL 30 nM, pH 6.2
T1 sequence (Q9X6V3 1-646): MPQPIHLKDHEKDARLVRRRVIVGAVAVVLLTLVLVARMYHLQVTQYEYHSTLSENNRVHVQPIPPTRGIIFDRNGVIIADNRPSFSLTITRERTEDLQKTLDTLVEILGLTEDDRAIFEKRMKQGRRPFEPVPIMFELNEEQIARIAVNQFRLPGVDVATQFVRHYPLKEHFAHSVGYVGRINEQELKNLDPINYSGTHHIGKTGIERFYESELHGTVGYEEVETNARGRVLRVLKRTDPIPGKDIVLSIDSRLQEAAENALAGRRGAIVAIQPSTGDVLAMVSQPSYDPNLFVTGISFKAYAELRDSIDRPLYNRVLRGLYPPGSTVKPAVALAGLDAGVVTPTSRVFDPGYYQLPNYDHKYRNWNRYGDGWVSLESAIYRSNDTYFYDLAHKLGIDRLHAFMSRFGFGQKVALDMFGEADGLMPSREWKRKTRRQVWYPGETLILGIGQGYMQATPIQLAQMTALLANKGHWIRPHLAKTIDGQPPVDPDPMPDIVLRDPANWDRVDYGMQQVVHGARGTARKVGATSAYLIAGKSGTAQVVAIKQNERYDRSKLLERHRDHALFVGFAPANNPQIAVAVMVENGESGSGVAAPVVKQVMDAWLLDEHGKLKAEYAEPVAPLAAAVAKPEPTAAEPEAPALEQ

E. coli (ATCC25922) = experiment: MIC against E. coli; details: for MIC: Escherichia coli, ATCC25922, read-out: E. coli MIC (ATCC25922) (mg/L)

P. aeruginosa PBP1a, sequence (Q07806 whole entry): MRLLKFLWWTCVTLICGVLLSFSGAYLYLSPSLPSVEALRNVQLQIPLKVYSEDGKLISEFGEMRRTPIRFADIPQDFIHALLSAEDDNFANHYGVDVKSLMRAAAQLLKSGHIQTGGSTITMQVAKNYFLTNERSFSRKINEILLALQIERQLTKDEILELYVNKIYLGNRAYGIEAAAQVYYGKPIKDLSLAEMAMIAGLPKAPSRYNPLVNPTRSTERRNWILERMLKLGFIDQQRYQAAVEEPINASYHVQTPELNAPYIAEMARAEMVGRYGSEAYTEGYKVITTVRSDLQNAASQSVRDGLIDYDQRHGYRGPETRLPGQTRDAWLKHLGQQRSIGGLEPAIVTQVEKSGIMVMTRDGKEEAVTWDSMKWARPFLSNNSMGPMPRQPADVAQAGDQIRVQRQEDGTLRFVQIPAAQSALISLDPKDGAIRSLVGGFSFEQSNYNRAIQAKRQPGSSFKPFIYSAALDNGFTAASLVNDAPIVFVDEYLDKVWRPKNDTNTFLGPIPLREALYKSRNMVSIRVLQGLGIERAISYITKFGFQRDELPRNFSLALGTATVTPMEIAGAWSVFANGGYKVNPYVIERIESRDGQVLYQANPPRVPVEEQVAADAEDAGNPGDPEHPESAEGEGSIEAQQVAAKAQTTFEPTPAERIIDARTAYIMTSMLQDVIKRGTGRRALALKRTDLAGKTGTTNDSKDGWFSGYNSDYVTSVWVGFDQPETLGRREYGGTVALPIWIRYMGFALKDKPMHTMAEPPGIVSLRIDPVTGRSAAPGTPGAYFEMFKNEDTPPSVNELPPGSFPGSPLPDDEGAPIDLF
P. aeruginosa PBP3, sequence (G3XD46 whole entry): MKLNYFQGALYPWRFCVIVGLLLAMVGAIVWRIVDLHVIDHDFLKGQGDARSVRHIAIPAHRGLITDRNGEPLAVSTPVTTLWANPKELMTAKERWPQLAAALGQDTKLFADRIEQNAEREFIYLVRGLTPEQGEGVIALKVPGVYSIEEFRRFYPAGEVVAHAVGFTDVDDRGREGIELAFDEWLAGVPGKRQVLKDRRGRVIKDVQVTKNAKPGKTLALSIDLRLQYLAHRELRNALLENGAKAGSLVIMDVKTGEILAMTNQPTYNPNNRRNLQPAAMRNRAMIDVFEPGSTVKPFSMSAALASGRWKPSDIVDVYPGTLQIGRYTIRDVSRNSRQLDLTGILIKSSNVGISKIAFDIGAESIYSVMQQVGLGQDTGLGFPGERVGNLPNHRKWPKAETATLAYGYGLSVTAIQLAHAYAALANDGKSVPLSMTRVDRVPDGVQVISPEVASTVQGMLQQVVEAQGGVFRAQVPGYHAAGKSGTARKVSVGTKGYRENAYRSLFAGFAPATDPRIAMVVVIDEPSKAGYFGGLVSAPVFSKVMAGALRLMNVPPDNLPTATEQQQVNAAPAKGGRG

Row | SMILES | MIC (A. baumannii (ARC3495)) | PBP3 acylation rate, k(on) (M^−1 · s^−1) (P. aeruginosa PBP3) | MIC [1] | MIC (P. aeruginosa WT (PAO1)) | PBP1a acylation rate, k(on) (M^−1 · s^−1) (P. aeruginosa PBP1a) | PBP2 acylation rate, k(on) (M^−1 · s^−1) (P. aeruginosa PBP2) | MIC (E. coli (ATCC25922)) | A. baumannii MIC (ARC3495) (mg/L) (A. baumannii (ARC3495)) | K. pneumoniae MIC (ATCC700603) [1] | P. aeruginosa WT (PAO1) MIC (mg/L) (P. aeruginosa WT (PAO1)) | E. coli MIC (ATCC25922) (mg/L) (E. coli (ATCC25922))
1 | Cn1ncc2c1[C@@H](/C(=N/O)NO)N1C[C@@H]2N(OS(=O)(=O)O)C1=O (racemic) [Example 10] | > 16 mg/L | ** (** represents a k(on) of 100 to 10,000 M^−1 · s^−1) | 8 to 16 µg/mL (≈ 23 to 45.9 µM) | > 16 µg/mL | * (* represents a k(on) < 100 M^−1 · s^−1) | * (* represents a k(on) < 100 M^−1 · s^−1) | 8 to 16 mg/L (≈ 23 to 45.9 µM) |  |  |  | 
2 | CON/C(=N\O)[C@@H]1c2c(cnn2C)[C@@H]2CN1C(=O)N2OS(=O)(=O)O (racemic) [Example 11] | 8 to 16 mg/L (≈ 22.1 to 44.2 µM) | *** (*** represents a k(on) > 10,000 M^−1 · s^−1) | < 8 µg/mL | 8 to 16 µg/mL (≈ 22.1 to 44.2 µM) | ** (** represents a k(on) of 100 to 10,000 M^−1 · s^−1) | * (* represents a k(on) < 100 M^−1 · s^−1) | < 8 mg/L |  |  |  | 
3 | Cn1ncc2c1[C@@H](/C(=N/O)NCc1ccc(N)cc1)N1C[C@@H]2N(OS(=O)(=O)O)C1=O (racemic) [Example 12] | > 16 mg/L | ** (** represents a k(on) of 100 to 10,000 M^−1 · s^−1) | > 16 µg/mL | > 16 µg/mL | ** (** represents a k(on) of 100 to 10,000 M^−1 · s^−1) | * (* represents a k(on) < 100 M^−1 · s^−1) | < 8 mg/L |  |  |  | 
4 | Cn1ncc2c1[C@@H](/C(C#N)=N/O)N1C[C@@H]2N(OS(=O)(=O)O)C1=O (racemic) [Example 13] | > 16 mg/L | ** (** represents a k(on) of 100 to 10,000 M^−1 · s^−1) | > 16 µg/mL | > 16 µg/mL | * (* represents a k(on) < 100 M^−1 · s^−1) | * (* represents a k(on) < 100 M^−1 · s^−1) | < 8 mg/L |  |  |  | 
5 | CN/C(=N\OC(N)=O)[C@@H]1c2c(cnn2C)[C@@H]2CN1C(=O)N2OS(=O)(=O)O (racemic) [Example 14, pyridium (4R,8S)-8-((Z)—N′-(carbamoyloxy)-N-methylcarbamimidoyl)-1-methyl-6-oxo-4,8-dihydro-1H-4,7-methanopyrazolo[3,4-e][1,3]diazepin-5(6H)-yl hydrogen sulfate] | 8 to 16 mg/L | *** (*** represents a k(on) > 10,000 M^−1 · s^−1) | < 8 µg/mL | < 8 µg/mL | ** (** represents a k(on) of 100 to 10,000 M^−1 · s^−1) | * (* represents a k(on) < 100 M^−1 · s^−1) | < 8 mg/L |  |  |  | 
6 | Cn1ncc2c1[C@@H](C1=NOC(C(=O)O)C1)N1C[C@@H]2N(OS(=O)(=O)O)C1=O (mixture of isomers) [Example 35, 3-((4R,8S)-1-methyl-6-oxo-5-(sulfooxy)-4,5,6,8-tetrahydro-1H-4,7-methanopyrazolo[3,4-e][1,3]diazepin-8-yl)-4,5-dihydroisoxazole-5-carboxylic acid] | > 16 mg/L | ** (** represents a k(on) of 100 to 10,000 M^−1 · s^−1) | > 16 µg/mL | > 16 µg/mL | * (* represents a k(on) < 100 M^−1 · s^−1) | * (* represents a k(on) < 100 M^−1 · s^−1) | < 8 mg/L |  |  |  | 
7 | Cn1ncc2c1[C@@H](C1=NOC(Cc3ccccc3)C1)N1C[C@@H]2N(OS(=O)(=O)O)C1=O (mixture of isomers) [Example 36] | > 16 mg/L | ** (** represents a k(on) of 100 to 10,000 M^−1 · s^−1) | > 16 µg/mL | > 16 µg/mL | ** (** represents a k(on) of 100 to 10,000 M^−1 · s^−1) | * (* represents a k(on) < 100 M^−1 · s^−1) | < 8 mg/L |  |  |  | 
8 | Cn1ncc2c1[C@@H](C1=NOC(Cc3ccccc3)C1)N1C[C@@H]2N(OS(=O)(=O)O)C1=O (mixture of isomers) [Example 37] |  | ** (** represents a k(on) of 100 to 10,000 M^−1 · s^−1) |  |  | * (* represents a k(on) < 100 M^−1 · s^−1) | * (* represents a k(on) < 100 M^−1 · s^−1) |  | * (* represents an MIC > 16 mg/L) | * (* represents an MIC > 16 mg/L) | * (* represents an MIC > 16 mg/L) | *** (*** represents an MIC < 8 mg/L)
9 | CC1C([C@@H]2c3c(cnn3C)[C@@H]3CN2C(=O)N3OS(=O)(=O)O)=NOC1CO (mixture of isomers) [Example 39, Pyridium (4R,8S)-8-(5-(hydroxymethyl)-4-methyl-4,5-dihydroisoxazol-3-yl)-1-methyl-6-oxo-4,8-dihydro-1H-4,7-methanopyrazolo[3,4-e][1,3]diazepin-5(6H)-yl hydrogen sulfate] | > 16 mg/L | ** (** represents a k(on) of 100 to 10,000 M^−1 · s^−1) | > 16 µg/mL | > 16 µg/mL | * (* represents a k(on) < 100 M^−1 · s^−1) | * (* represents a k(on) < 100 M^−1 · s^−1) | < 8 mg/L |  |  |  | 
10 | CN/C(=N\O)[C@@H]1c2c(cnn2C)[C@@H]2CN1C(=O)N2OS(=O)(=O)O (stereo in doubt) [Example 1, sodium (4R,8S)-8-((Z)—N′-hydroxy-N-methylcarbamimidoyl)-1-methyl-6-oxo-4,8-dihydro-1H-4,7-methanopyrazolo[3,4-e][1,3]diazepin-5(6H)-yl sulfate] | < 8 mg/L | *** (*** represents a k(on) > 10,000 M^−1 · s^−1) | < 8 µg/mL | < 8 µg/mL | ** (** represents a k(on) of 100 to 10,000 M^−1 · s^−1) | * (* represents a k(on) < 100 M^−1 · s^−1) | < 8 mg/L |  |  |  | 
11 | CN/C(=N\O)[C@H]1c2c(cnn2C)[C@H]2CN1C(=O)N2OS(=O)(=O)O (stereo in doubt) [Example 41, Sodium (4S*,8R*)-8-((Z)—N′-hydroxy-N-methylcarbamimidoyl)-1-methyl-6-oxo-4,8-dihydro-1H-4,7-methanopyrazolo[3,4-e][1,3]diazepin-5(6H)-yl hydrogen sulfate] | > 16 mg/L | ** (** represents a k(on) of 100 to 10,000 M^−1 · s^−1) | > 16 µg/mL | > 16 µg/mL | * (* represents a k(on) < 100 M^−1 · s^−1) | * (* represents a k(on) < 100 M^−1 · s^−1) | < 8 mg/L |  |  |  | 

From patent US11046694B2, “Compounds and methods for treating bacterial infections” (Entasis Therapeutics, Inc., priority 2018, dated 2021)
